Laboratory results as given in patent US9994577B2, “Azepanyl-derivatives and pharmaceutical compositions comprising the same with antiparasitic activity” (Merck Patent GmbH, priority 2014, dated 2018).

The compounds below were run on P. falciparum NF54 (assay: P. falciparum growth assay ([3H]hypoxanthine incorporation)). Conditions: Plasmodium falciparum, [3H]-hypoxanthine incorporation at 72 h, read-out: EC50 (nM), concentration that inhibits by 50% the incorporation of [3H]-hypoxanthine.
Format: cell-based
Procedure: P. falciparum strain NF54 was obtained from the Research and Reference Reagent Resource Center (MR4) (Manassas, Va.). The two strains were maintained in vitro by a modification of the method of Trager and Jensen. Cultures were maintained in A positive (A+) human erythrocytes suspended at 5% hematocrit in complete medium. 5 g albumax II (Gibco-Invitrogen, Cat No#11021037), 2.5 mg gentamicin (Sigma Aldrich), 25 mM HEPES (Invitrogen), 5 mg hypoxanthine (Sigma), and 1 L of RPMI 1640 (Invitrogen, Cat No#11875085). Cultures were grown in 100 mm petri-dishes (BD Falcon) at a volume of 15 mL and were kept in a standard gas environment of 4% CO2 and 3% O2 at temperature 37° C. in a tri-gas incubator (Cat#3131, Thermo Scientific Forma Series II Water Jacketed). Parasite growth and morphology were observed daily using thin smears at 100× (oil immersion) magnification following staining with Geimsa stain. […]
Parasite growth was detected in assay by the traditional [3H]hypoxanthine incorporation assay as previously described by Desjardins and colleagues (Antimicrob. Agents Chemother., 16(6), 710, 1979). To perform the [3H]hypoxanthine incorporation assay, the new antimalarial agents were serially diluted 1:1 into hypoxanthine-free complete medium to a final volume of 100 μL (final antimalarial agent concentration range, 10,000 nM to 4.8 nM may change in special case) in 96 well sterile cell culture plates. […] All cultures used in the study are albumax II adopted. The microtiter plates were incubated in chamber in a standard gas environment at 37° C. for 72 h. After 48 h of incubation and prior to addition of 50 μL (0.5 μCi/well) 3H-Hypoxanthine (specific activity, 20 Ci/mmol, Conc. 1.0 mCi/ml; American Radiolabeled Chemicals, Inc., St. Louis, Mo.), culture growth was assessed by making the smears that ensures the culture has grown and assay plate is further incubated for 24 h.
Following the incubation period, the plates were harvested with a FilterMate cell harvester (Perkin Elmer) onto unifilter-96 GF/B plates, washed with distilled water to remove excess radiochemical and plates were kept for drying 37° C. overnight or 60° C. for 1 h. 50 μL of Microscint scintillation cocktail (Microscint-High Efficiency LSC-Cocktail; Perkin Elmer) added in the unifilter-96 GF/B plates and kept for 15-20 min. The plates were counted in a Top Count NXT microplate scintillation and luminescence counter (Perkin Elmer). The mean values for [3H]hypoxanthine incorporation in parasitized control and non-parasitized control erythrocytes were calculated.

**Q.** Which EC50 does the source give for CS(=O)(=O)c1c(C(F)(F)F)ccc2c1c1cc(C(F)(F)F)ccc1n2C1CCCNC[C@@H]1O (mixture of isomers) [6 (mixture of isomers), (3R,4R)-4-[4-methylsulfonyl-3,6-bis(trifluoromethyl)carbazol-9-yl]azepan-3-ol] here?
**A.** The EC50 was 45.9 nM.

**Q.** With COc1cc(Cl)cc2c3cc(Cl)ccc3n([C@H]3CCCNC[C@@H]3O)c12 (racemic) [8 (racemic), (3S,4S)-4-(3,6-dichloro-1-methoxy-9H-carbazol-9-yl)azepan-3-ol] as the compound, how does the EC50 read?
**A.** The EC50 was 32.9 nM.

**Q.** Which EC50 does the source give for O[C@H]1CNCCCC1N1c2ccc(Cl)cc2Oc2cc(Cl)ccc21 (mixture of isomers) [10 (mixture of isomers), (3R,4R)-4-(3,7-dichloro-10H-phenoxazin-10-yl)azepan-3-ol] here?
**A.** The EC50 was 21 nM.

**Q.** For COc1cc2c(cc1Cl)c1cc(Cl)ccc1n2[C@H]1CCCNC[C@@H]1O (racemic) [Compound 9, (3R,4R)-4-(3,6-dichloro-2-methoxy-9H-carbazol-9-yl)azepan-3-ol], which EC50 is on record?
**A.** Its EC50 is 18 nM.

**Q.** How did the EC50 turn out when O[C@H]1CNCCC[C@@H]1n1c2ccc(C(F)(F)F)cc2c2cc(C(F)(F)F)cnc21 (racemic) [Compound 14 (i), (3R,4R)-4-[3,6-bis(trifluoromethyl)pyrido[2,3-b]indol-9-yl]azepan-3-ol] was run?
**A.** The EC50 was 16.6 nM.

**Q.** With O[C@@H]1CNCCC[C@H]1n1c2ccc(Cl)cc2c2cc(Cl)ccc21 (stereo in doubt) [Compound 2, (3R,4R)-4-(3,6-dichloro-9H-carbazol-9-yl)azepan-3-ol] as the compound, how does the EC50 read?
**A.** The EC50 was 36.4 nM.

**Q.** With O[C@@H]1CNCCC[C@H]1n1c2ccc(C(F)(F)F)cc2c2cc(C(F)(F)F)ccc21 [Compound 3, (3R,4R)-4-[3,6-bis(trifluoromethyl)-9H-carbazol-9-yl]azepan-3-ol] as the compound, how does the EC50 read?
**A.** Its EC50 is 2.55 nM.

**Q.** Which EC50 does the source give for COc1cc2c(cc1C(F)(F)F)c1nc(C(F)(F)F)ccc1n2[C@@H]1CCCNC[C@H]1O [Compound 17, (3R,4R)-4-(7-methoxy-2,8-bis(trifluoromethyl)-5H-pyrido[3,2-b]indol-5-yl)azepan-3-ol] here?
**A.** The EC50 was 12.8 nM.

**Q.** For COc1cc2c(cc1C(F)(F)F)c1nc(C(F)(F)F)ccc1n2[C@H]1CCCNC[C@@H]1O [Compound 18, (3S,4S)-4-(7-methoxy-2,8-bis(trifluoromethyl)-5H-pyrido[3,2-b]indol-5-yl)azepan-3-ol], which EC50 is on record?
**A.** The EC50 was 5.4 nM.

**Q.** How did the EC50 turn out when COc1cc(Cl)cc2c3nc(C(F)(F)F)ccc3n([C@@H]3CCCNC[C@H]3O)c12 [Compound 19, (3R,4R)-4-(8-chloro-6-methoxy-2-(trifluoromethyl)-5H-pyrido[3,2-b]indol-5-yl)azepan-3-ol] was run?
**A.** Its EC50 is 24 nM.

**Q.** With COc1cc(Cl)cc2c3nc(C(F)(F)F)ccc3n([C@H]3CCCNC[C@@H]3O)c12 [Compound 20, (3S,4S)-4-(8-chloro-6-methoxy-2-(trifluoromethyl)-5H-pyrido[3,2-b]indol-5-yl)azepan-3-ol] as the compound, how does the EC50 read?
**A.** Its EC50 is 13.1 nM.

**Q.** For O[C@@H]1CNCCC[C@H]1n1c2ccc(Cl)cc2c2nc(C(F)(F)F)ncc21 [Compound 21, (3R,4R)-4-(8-chloro-2-(trifluoromethyl)-5H-pyrimido[5,4-b]indol-5-yl)azepan-3-ol], which EC50 is on record?
**A.** The EC50 was 41.7 nM.

**Q.** For O[C@H]1CNCCC[C@@H]1n1c2ccc(Cl)cc2c2nc(C(F)(F)F)ncc21 [Compound 22, (3S,4S)-4-(8-chloro-2-(trifluoromethyl)-5H-pyrimido[5,4-b]indol-5-yl)azepan-3-ol], which EC50 is on record?
**A.** The EC50 was 46.1 nM.

**Q.** With O[C@@H]1CNCCC[C@H]1n1c2ccc(C(F)(F)F)nc2c2cc(C(F)(F)F)cnc21 [Compound 23, (3R,4R)-4-(2,8-bis(trifluoromethyl)-5H-pyrrolo[2,3-b:4,5-b′]dipyridin-5-yl)azepan-3-ol] as the compound, how does the EC50 read?
**A.** Its EC50 is 11.2 nM.

**Q.** O[C@H]1CNCCC[C@@H]1n1c2ccc(C(F)(F)F)nc2c2cc(C(F)(F)F)cnc21 [Compound 24, (3S,4S)-4-(2,8-bis(trifluoromethyl)-5H-pyrrolo[2,3-b:4,5-b′]dipyridin-5-yl)azepan-3-ol] was tested. Which EC50 did it give?
**A.** The EC50 was 2.3 nM.

**Q.** Which EC50 does the source give for O=C1CC[C@@H](n2c3ccc(Cl)cc3c3cc(Cl)ccc32)[C@H](O)CN1 [Compound 27, (5R,6R)-5-(3,6-dichloro-9H-carbazol-9-yl)-6-hydroxyazepan-2-one] here?
**A.** Its EC50 is 28.2 nM.

Each compound was assayed on P falciparum PF3D/0087/N9 (assay: In vivo efficacy in a murine model of P. falciparum-malaria (4-day test)). Conditions: NODscidIL2Rynull mice engrafted with human erythrocytes.
Parameters: species or system Plasmodium falciparum
Text: In vivo efficacy against P falciparum PF3D/0087/N9 for the compounds no. 2 and 3 as described in Examples 16 and 17.
The in vivo activity in a murine model of P. falciparum-malaria was adapted from the protocol as provided by Angulo-Barturen I, Jimènez-Diaz M B, Mulet T, Rullas J, Herreros E, et al. (2008) PLoS ONE 3(5): e2252. doi:10.1371/journal.pone.0002252.
This study measures the therapeutic efficacy of compounds no. 2 and 3 against Plasmodium falciparum growing in peripheral blood of NODscidIL2Rynull mice engrafted with human erythrocytes. The antimalarial efficacy of compounds no. 2 and 3 were assessed using a “4-day test”.
The parameters of efficacy estimated in the study are a) the dose of compounds no. 2 and 3 in mg·kg^−1 that reduces parasitemia at day 7 after infection by 90% with respect to vehicle-treated mice (parameter denoted as ED90)

**Q.** How did the “ED90, dose that reduces parasitemia at day 7 after infection by 90% with respect to vehicle-treated mice” value turn out when O[C@@H]1CNCCC[C@H]1n1c2ccc(Cl)cc2c2cc(Cl)ccc21 (stereo in doubt) [Compound 2, (3R,4R)-4-(3,6-dichloro-9H-carbazol-9-yl)azepan-3-ol] was run?
**A.** The value was under 10 mg/kg.

**Q.** O[C@@H]1CNCCC[C@H]1n1c2ccc(C(F)(F)F)cc2c2cc(C(F)(F)F)ccc21 [Compound 3, (3R,4R)-4-[3,6-bis(trifluoromethyl)-9H-carbazol-9-yl]azepan-3-ol] was tested. Which “ED90, dose that reduces parasitemia at day 7 after infection by 90% with respect to vehicle-treated mice” value did it give?
**A.** The value was under 3 mg/kg.
